Experimental data: article PMC5036048, “Rational improvement of gp41-targeting HIV-1 fusion inhibitors: an innovatively designed Ile-Asp-Leu tail with alternative conformations” (Scientific Reports, 2016)
Ends that are not written are not given here.

Key:
[1] = test system: T2635-resistant strain K154Q; type: cell-based, HIV-1; settings: triplicate, repeated twice, mean ± SD, read-out: IC50 (nM) against K154Q
Description: (§1) Table 2 Inhibitory activities of CP, CP-IDL and T20 against T2635 or T20 resistant strains. | column: IC50 (nM) of / CP; IC50 (nM) of / CP-IDL; IC50 (nM) of / T20

[2] = test system: WT (T20-resistant strain panel); type: cell-based, HIV-1; settings: triplicate, repeated twice, mean ± SD, read-out: IC50 (nM) against WT
Description: as §1

[3] = test system: T2635-resistant strain N113E; type: cell-based, HIV-1; settings: triplicate, repeated twice, mean ± SD, read-out: IC50 (nM) against N113E
Description: as §1

[4] = test system: T20-resistant strain N42T, N43K; type: cell-based, HIV-1; settings: triplicate, repeated twice, mean ± SD, read-out: IC50 (nM) against N42T, N43K
Description: as §1

[5] = test system: T2635-resistant strain Q66R, N126K; type: cell-based, HIV-1; settings: triplicate, repeated twice, mean ± SD, read-out: IC50 (nM) against Q66R, N126K
Description: as §1

[6] = test system: WT (T2635-resistant strain panel); type: cell-based, HIV-1; settings: triplicate, repeated twice, mean ± SD, read-out: IC50 (nM) against WT
Description: as §1

[7] = test system: T2635-resistant strain N126K; type: cell-based, HIV-1; settings: triplicate, repeated twice, mean ± SD, read-out: IC50 (nM) against N126K
Description: as §1

[8] = test system: BJ412.W6M.ENV.S3; type: cell-based, HIV-1; settings: subtype C; triplicate, repeated twice, mean ± SD; read-out: IC50 (nM) against BJ412.W6M.ENV.S3
Description: (§2) Table 1 Inhibitory activities of CP, CP-IDL and T20 against HIV-1 pseudovirus. | column: IC50 (nM) of / CP; IC50 (nM) of / CP-IDL; IC50 (nM) of / T20

[9] = test system: CRF02_AG clone 33; type: cell-based, HIV-1; settings: subtype AG, R5, Tier 3; triplicate, repeated twice, mean ± SD; read-out: IC50 (nM) against CRF02_AG clone 33
Description: as §2

[10] = test system: BG505.W6M.ENV.C2; type: cell-based, HIV-1; settings: subtype A; triplicate, repeated twice, mean ± SD; read-out: IC50 (nM) against BG505.W6M.ENV.C2
Description: as §2

[11] = test system: ZM109F.PB4; type: cell-based, HIV-1; settings: subtype C, R5; triplicate, repeated twice, mean ± SD; read-out: IC50 (nM) against ZM109F.PB4
Description: as §2

[12] = test system: MJ412.W0M.ENV.B1; type: cell-based, HIV-1; settings: subtype C; triplicate, repeated twice, mean ± SD; read-out: IC50 (nM) against MJ412.W0M.ENV.B1
Description: as §2

[13] = test system: B1206.W6P.ENV.A1; type: cell-based, HIV-1; settings: subtype A; triplicate, repeated twice, mean ± SD; read-out: IC50 (nM) against B1206.W6P.ENV.A1
Description: as §2

[14] = test system: CRF02_AG/A1 clone 280; type: cell-based, HIV-1; settings: subtype AG/A1, R5, Tier 2; triplicate, repeated twice, mean ± SD; read-out: IC50 (nM) against CRF02_AG/A1 clone 280
Description: as §2

[15] = test system: SF162.LS; type: cell-based, HIV-1; settings: subtype B, R5, Tier 1; triplicate, repeated twice, mean ± SD; read-out: IC50 (nM) against SF162.LS
Description: as §2

[16] = test system: CRF02_AG clone 278; type: cell-based, HIV-1; settings: subtype AG, R5, Tier 3; triplicate, repeated twice, mean ± SD; read-out: IC50 (nM) against CRF02_AG clone 278
Description: as §2

[17] = test system: pCH119 env; type: cell-based, HIV-1; settings: subtype BC, R5, Tier 2; triplicate, repeated twice, mean ± SD; read-out: IC50 (nM) against pCH119 env
Description: as §2

[18] = test system: CRF02_AG clone 242; type: cell-based, HIV-1; settings: subtype AG, R5, Tier 1; triplicate, repeated twice, mean ± SD; read-out: IC50 (nM) against CRF02_AG clone 242
Description: as §2

[19] = test system: HIV-1 92UG024 (subtype D, X4); type: cell-based
Procedure: (§3) Inhibition activities of peptides on infection by HIV-1 clinical strains were determined as previously described. For inhibition of HIV-1 92TH009 (subtype A/E, R5) and 92UG024 (subtype D, X4) infection,100 TCID50 of the virus was added to 1 × 10^5/ml M7 cells in RPMI 1640 medium containing 10% FBS in the presence or absence of the test peptide overnight. Then, the culture supernatants were changed to fresh media. On the fourth day post-infection, culture supernatants were collected for detection of p24 antigen by ELISA. The percent inhibition of p24 production was calculated using the computer program Calcusyn.

[20] = test system: HIV-1 92TH009 (subtype A/E, R5); experiment: Inhibition of HIV-1 clinical strain infection of M7 cells, p24 antigen ELISA; type: cell-based
Procedure: as §3

In the case of WEEWDKKIEEYTKKIEELIKKSQNQQ [CP], the IC50 [1] is reported as over 500 nM, the IC50 [2] is reported as 181 ± 16 nM and the IC50 [3] is reported as 297 ± 22 nM. The IC50 [4] was over 500 nM, the IC50 [5] was over 500 nM and the IC50 [6] was 195 ± 12 nM. For the same sequence, the IC50 [7] was 462 ± 44 nM, the IC50 [8] was 51.9 ± 12 nM and the IC50 [9] was 111 ± 4.8 nM. For the same sequence, the IC50 [10] was 26.5 ± 8.6 nM, the IC50 [11] was 63.4 ± 4.6 nM and the IC50 [12] was 46 ± 3.2 nM. For the same sequence, the IC50 [13] was over 2000 nM, the IC50 [14] was 213 ± 14 nM and the IC50 [15] was 78.8 ± 11 nM. It also gave an IC50 [16] of 44.4 ± 13 nM, an IC50 [17] of 42.3 ± 2.9 nM and an IC50 [18] of 61.2 ± 13 nM. It also gave an IC50 ([19]; M7 cells, 100 TCID50 virus, peptide overnight, p24 ELISA on day 4 post-infection, read-out: IC50, inhibition of HIV-1 92UG024 infection) of 0.208 µM and an IC50 ([20]; M7 cells, 100 TCID50 virus, peptide overnight, p24 ELISA on day 4 post-infection) of 0.281 µM.
In the case of WEEWDKKIEEYTKKIEELIKKSQNQQIDL [CP-IDL], the IC50 [1] is reported as 9.79 ± 2.9 nM, the IC50 [2] is reported as 8.67 ± 1.6 nM and the IC50 [3] is reported as 7.99 ± 3.5 nM. The IC50 [4] was 382 ± 82 nM, the IC50 [5] was 302 ± 34 nM and the IC50 [6] was 10.8 ± 1.2 nM. For the same sequence, the IC50 [7] was 46.4 ± 16 nM, the IC50 [8] was 1.21 ± 0.1 nM and the IC50 [9] was 2.82 ± 0.5 nM. It also gave an IC50 [10] of 8.61 ± 2.8 nM, an IC50 [11] of 2.93 ± 1.2 nM and an IC50 [12] of 2.24 ± 1.3 nM. It also gave an IC50 [13] of 74.5 ± 12 nM, an IC50 [14] of 5.62 ± 1.2 nM and an IC50 [15] of 1.51 ± 0.4 nM. The IC50 [16] was 8.59 ± 2.4 nM, the IC50 [17] was 5.79 ± 1.1 nM and the IC50 [18] was 6.24 ± 3.7 nM. For the same sequence, the “Increase of potency over CP” value ([19]; 92UG024, ratio of IC50 to CP) was 55 fold, the “Activity stronger than that of T20” value ([19]; 92UG024, ratio of IC50 to T20) was 12 fold and the “Activity stronger than that of T20” value ([20]; 92TH009) was 24 fold. For the same sequence, the “Increase of potency over CP” value ([20]; 92TH009, ratio of IC50 to CP) was 109 fold.
